Assays:
Assay in all cases: relative viability (nuclei count vs DMSO), 5 days (fraction); higher = more cells survive
Pictilisib + AZD7762 = compound: CS(=O)(=O)N1CCN(Cc2cc3nc(-c4cccc5[nH]ncc45)nc(N4CCOCC4)c3s2)CC1 [Pictilisib] + NC(=O)Nc1cc(-c2cccc(F)c2)sc1C(=O)N[C@H]1CCCNC1 [AZD7762] (partner 0.2 µM)
How it was run: (§1)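 The day after seeding in 1536-well plates, lung cancer cell lines were treated by pin tool with a single drug, or with a fixed anchor-drug dose together with five library-drug doses (not always all listed) in √10 steps. After 5 days, a combined fix-and-stain solution (final 0.05% Triton X-100, 1% formaldehyde, 1 ug/ml Hoechst) was added. Nuclei counted on 4× images gave relative viability as treated counts over vehicle counts, reported as the median of duplicate plates.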

Pictilisib + Foretinib = compound: CS(=O)(=O)N1CCN(Cc2cc3nc(-c4cccc5[nH]ncc45)nc(N4CCOCC4)c3s2)CC1 [Pictilisib] + COc1cc2c(Oc3ccc(NC(=O)C4(C(=O)Nc5ccc(F)cc5)CC4)cc3F)ccnc2cc1OCCCN1CCOCC1 [Foretinib] (partner 0.25 µM)
How it was run: as §1

MK-2206 + Pictilisib = compound: NC1(c2ccc(-c3nc4ccn5c(=O)[nH]nc5c4cc3-c3ccccc3)cc2)CCC1 [MK-2206] + CS(=O)(=O)N1CCN(Cc2cc3nc(-c4cccc5[nH]ncc45)nc(N4CCOCC4)c3s2)CC1 [Pictilisib] (partner 1 µM)
How it was run: as §1

MK-2206 + Phenformin = compound: NC1(c2ccc(-c3nc4ccn5c(=O)[nH]nc5c4cc3-c3ccccc3)cc2)CCC1 [MK-2206] + N=C(N)NC(=N)NCCc1ccccc1 [Phenformin] (partner 250 µM)
How it was run: as §1

| Cell Line | relative viability (Pictilisib + AZD7762; first compound 0.02 µM) | relative viability (Pictilisib + AZD7762; first compound 0.06325 µM) | relative viability (Pictilisib + AZD7762; first compound 0.6325 µM) | relative viability (Pictilisib + AZD7762; first compound 2 µM) | relative viability (Pictilisib + Foretinib; first compound 0.02 µM) | relative viability (Pictilisib + Foretinib; first compound 0.06325 µM) | relative viability (Pictilisib + Foretinib; first compound 0.6325 µM) | relative viability (Pictilisib + Foretinib; first compound 2 µM) | relative viability (MK-2206 + Pictilisib; first compound 0.01 µM) | relative viability (MK-2206 + Pictilisib; first compound 0.03162 µM) | relative viability (MK-2206 + Pictilisib; first compound 0.3162 µM) | relative viability (MK-2206 + Pictilisib; first compound 1 µM) | relative viability (MK-2206 + Phenformin; first compound 0.01 µM) | relative viability (MK-2206 + Phenformin; first compound 0.03162 µM) | relative viability (MK-2206 + Phenformin; first compound 0.3162 µM) | relative viability (MK-2206 + Phenformin; first compound 1 µM) |
| --- | --- | --- | --- | --- | --- | --- | --- | --- | --- | --- | --- | --- | --- | --- | --- | --- |
| NCI-H2085 | 0.963 | 1.06 | 0.354 | 0.287 | 0.858 | 0.811 | 0.572 | 0.329 | 0.516 | 0.415 | 0.416 | 0.438 | 0.713 | 0.834 | 0.681 | 0.59 |
| NCI-H2087 | 1.39 | 1.29 | 1.29 | 0.952 | 1 | 1.19 | 0.828 | 0.588 | 0.817 | 0.933 | 0.833 | 0.671 | 0.531 | 0.361 | 0.404 | 0.317 |
| NCI-H2126 | 1.02 | 1.01 | 0.956 | 0.716 | 1.23 | 1.14 | 0.931 | 0.423 | 0.522 | 0.47 | 0.491 | 0.468 | 0.515 | 0.501 | 0.446 | 0.426 |
| NCI-H2170 | 0.879 | 0.917 | 0.645 | 0.422 | 1 | 0.983 | 0.827 | 0.772 | 0.367 | 0.363 | 0.309 | 0.262 | 0.398 | 0.44 | 0.426 | 0.404 |
| NCI-H2347 | 0.796 | 0.806 | 0.546 | 0.396 | 0.843 | 0.937 | 1.19 | 0.438 | 0.384 | 0.67 | 0.634 | 0.652 | 0.443 | 0.345 | 0.51 | 0.224 |
